Legend:
RPA = biological target: T1, RPA (Homo sapiens, UniProt P15927+P27694+P35244); assay: WaterLOGSY NMR analysis of compound binding to RPA; settings: 20 or 40 μM compound, 3.3 μM RPA
T1 construct: made in house
Description: Compounds ‘1’ and ‘6’ physically interact with RAD52: To confirm that the selected compounds bind RAD52, we employed water-ligand observation with gradient spectroscopy (WaterLOGSY), an NMR technique, which is based on transfer of magnetization from bulk water to the protein-bound compound of interest (Dalvit et al., 2001, Dalvit et al., 2000). In WaterLOGSY spectrum, if a compound binds to a protein, the compound will receive negative nuclear Overhauser effects (NOEs) due to the slow tumbling of the protein-compound complex, leading to a positive WaterLOGSY peak.
WaterLOGSY NMR analysis of the compound binding to RAD52 and RPA proteins: Compound binding to RAD52 and RPA proteins was analyzed using water-ligand observation with gradient spectroscopy (WaterLOGSY) NMR experiments (Dalvit et al., 2001, Dalvit et al., 2000). The WaterLOGSY spectra of compounds in the presence of RAD52 or RPA were acquired using a water NOE mixing time of 1 s and a T2 relaxation filter of 50 ms just before data acquisition to suppress the broad signals derived from protein. The protein buffer used in the experiments contains 10 mM Tris-d11, 75 mM KCl, 0.25 mM EDTA, pH 7.5, and 10% D20. All NMR data were acquired on a Bruker Avance II 800 MHz NMR spectrometer equipped with a sensitive cryoprobe and recorded at 25° C. The ^1H chemical shifts were referenced to 2,2-dimethyl-2-silapentane-5-sulfonate (DSS). NMR spectra were processed using NMR Pipe (Delaglio et al., 1995) and analysed using NMR View (Johnson and Blevins, 1994).

RPA-ssDNA interaction = biological target: T2, RPA-ssDNA interaction (Homo sapiens, UniProt P15927+P27694+P35244); assay: FRET titration of the RPA-Cy3-dT30-Cy5 complex; format: binding
T2 construct: made in house
Description: Compounds ‘1’ and ‘6’ inhibit RAD52 binding to and annealing of the RPA-coated ssDNA: In the cell, ssDNA is typically found in complex with Replication protein A (RPA), which is the major eukaryotic ssDNA-binding protein essential for DNA replication, repair and recombination (Wold, 1997, Oakley and Patrick, 2010, Chen and Wold, 2014). The RPA-ssDNA complex is a natural substrate for the RDA52-mediated strand annealing. To confirm that compounds ‘1’ and ‘6’ can inhibit the RAD52 binding to and annealing of the RPA-coated ssDNA we added stoichiometric amounts of RPA (1 RPA per 30 nucleotides of ssDNA) to the FRET-based ssDNA binding/wrapping and ssDNA annealing experiments described above. RPA binds ssDNA with high affinity and extends the ssDNA to its contour length. In our assays such an extension manifests as a distinct FRET state of ˜0.3, which is readily distinguished from a FRET state of ˜0.48 of free Cy3-dT30-Cy5 ssDNA, as well as ˜0.63 FRET of the stoichiometric ssDNA-RPA-RAD52 complex (see FIG. 2 Supplement 1 and (Grimme and Spies, 2011) for details). […] Both, however, inhibited the RAD52 binding to and wrapping of RPA-coated ssDNA with IC50 values identical to those determined without RPA (FIG. 2e and FIG. 3e).
where FRET0 is the initial FRET value of RAD52-ssDNA complex in the absence of the compound and FRETmin is the FRET value at complete inhibition. FRET values were calculated as an average of three or more independent annealing reactions plotted against the concentration of the compound. Inhibition of the RAD52-dsDNA interaction was assayed in a similar experiment, except the stoichiometric complexes containing 1 nM molecules of Cy3-Oligo28-Cy5 duplex DNA and 10 nM RAD52. […] In all experiments, the FRET values for each data point were corrected for the effects of the compounds on the respective substrate in the absence of RAD52.

GM01604 cells = assay: Neutral comet assay of RAD52/MUS81-dependent DSB formation; format: cell-based, human; settings: for IC50 for decrease of mean tail moment following HU treatment, in words: 2 mM HU + 300 nM UCN01, 6 h
Description: Inhibiting the RAD52-ssDNA interaction interferes with RAD52/MUS81-mediated DSB formation essential for the replication fork recovery in check point deficient cells: In human cells, RAD52 may perform both limited recombination-mediator function in the RAD51-dependent pathway (Lok and Powell, 2012, Benson et al., 1998, Feng et al., 2011) as well as additional RAD51-independent roles (Lok and Powell, 2012, Murfuni et al., 2013, Mcllwraith and West, 2008). One of these HR independent roles of RAD52 involves stimulation of MUS81/EME1-dependent DSB formation at the replication forks stalled by hydroxyurea (HU) treatment in the absence of cellular checkpoints (Murfuni et al., 2013). Since the most likely targets of these MUS81/EME1/RAD52-dependent DSBs are the DNA structures produced by RAD52 (Murfuni et al., 2013), we expected this activity to depend on the RAD52-ssDNA interaction (FIG. 5a). To confirm this, we assessed DSB formation in the checkpoint deficient cells using the neutral comet assay. These assays monitor MUS81/EME1/RAD52-dependent DSB formation upon induction of replication stress by HU treatment in primary fibroblasts immortalized by hTERT expression and treated with UNC01 to inhibit CHK1 kinase (FIG. 5b). […] Importantly, these inhibitors recapitulate RAD52 depletion by inhibiting RAD52-MUS81-dependent DSBs at stalled replication forks (FIG. 5a-b). […] It also confirms our previous supposition that the target of MUS81/EME1-mediated cleavage under these conditions are indeed the structures annealed by RAD52. […] We previously reported that concomitant depletion of RAD52 and MUS81 gives raise to the MUS81-independent DSBs (Murfuni et al., 2013). […] Furthermore, accumulation of anaphase bridges, a phenotype associated with impairment of the RAD52-independent mitotic function of MUS81/EME1 was completely unaffected by inhibition of RAD52, whereas it was strongly stimulated by MUS81 silencing (FIG. 5 Supplement 1).
Neutral Comet Assay: To induce RAD52-MUS81-dependent cleavage at arrested replication forks (Murfuni et al., 2013), hTERT-immortalized wild-type human fibroblasts (GM01604) were treated with 2 mM HU and 300 nM UCN01 for 6 h, in the presence and absence of varying concentrations of ‘1’ or ‘6’. Where indicated, the GM01604 cells were cells were transfected with siRNAs directed against GFP (Ctrl), or against RAD52 (Qiagen) 48 hours prior to induction of the replication stress and/or inhibitor treatment. After that cells were subjected to neutral comet assay as described in Murfuni et al (Murfuni et al., 2013). Slides were analyzed by a computerized image analysis system (Comet IV, Perceptive UK). To assess the quantity of DNA damage, computer-generated tail moment values (tail length×fraction of total DNA in the tail) were used. Apoptotic cells (smaller comet head and extremely larger comet tail) were excluded from the analysis to avoid artificial enhancement of tail moment. A minimum of 100 cells were analyzed for each compound concentration point.

T1 sequence (P27694 whole entry): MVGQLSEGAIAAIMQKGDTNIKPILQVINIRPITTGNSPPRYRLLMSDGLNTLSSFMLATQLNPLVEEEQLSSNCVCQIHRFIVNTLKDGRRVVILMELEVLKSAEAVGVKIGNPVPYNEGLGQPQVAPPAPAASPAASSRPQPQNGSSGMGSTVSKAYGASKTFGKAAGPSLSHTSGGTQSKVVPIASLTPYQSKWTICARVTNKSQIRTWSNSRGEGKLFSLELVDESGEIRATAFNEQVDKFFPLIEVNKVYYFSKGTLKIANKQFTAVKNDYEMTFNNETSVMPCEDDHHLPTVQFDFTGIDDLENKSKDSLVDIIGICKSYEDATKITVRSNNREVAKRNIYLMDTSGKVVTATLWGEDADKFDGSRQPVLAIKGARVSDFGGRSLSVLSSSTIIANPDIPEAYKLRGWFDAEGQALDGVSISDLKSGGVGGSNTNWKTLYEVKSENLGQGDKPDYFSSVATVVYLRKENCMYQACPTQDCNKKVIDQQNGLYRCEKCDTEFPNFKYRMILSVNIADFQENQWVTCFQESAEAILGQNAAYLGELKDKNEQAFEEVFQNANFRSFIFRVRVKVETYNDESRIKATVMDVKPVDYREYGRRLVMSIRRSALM
T1 sequence (P15927 whole entry): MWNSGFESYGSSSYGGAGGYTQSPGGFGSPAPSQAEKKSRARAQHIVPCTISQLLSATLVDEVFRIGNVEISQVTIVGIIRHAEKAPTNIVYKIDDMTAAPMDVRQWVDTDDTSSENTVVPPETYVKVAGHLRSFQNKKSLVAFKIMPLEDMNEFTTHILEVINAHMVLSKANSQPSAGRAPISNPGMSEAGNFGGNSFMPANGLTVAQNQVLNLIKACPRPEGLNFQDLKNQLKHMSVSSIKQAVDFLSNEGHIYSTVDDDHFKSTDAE
T1 sequence (P35244 whole entry): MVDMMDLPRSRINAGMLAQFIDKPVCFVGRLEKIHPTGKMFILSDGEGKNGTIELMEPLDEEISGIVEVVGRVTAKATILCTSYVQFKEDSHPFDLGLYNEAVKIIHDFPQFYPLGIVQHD
T2 sequence (P27694 whole entry): as the sequence (P27694 whole entry) above
T2 sequence (P15927 whole entry): as the sequence (P15927 whole entry) above
T2 sequence (P35244 whole entry): as the sequence (P35244 whole entry) above

Structure (SMILES) | Binding to RPA by WaterLOGSY (RPA) | Effect on the RPA-ssDNA interaction (RPA-ssDNA interaction) | IC50 for decrease of mean tail moment following HU treatment, in words (GM01604 cells) | Concentration sufficient to achieve the same level in DSB reduction as siRNA treatment (GM01604 cells; HU + UCN01) | DSB formation in RAD52-depleted cells (GM01604 cells; RAD52 siRNA plus compound) | Reduction in DSBs compared with siRNA depletion of RAD52 (GM01604 cells; 500 nM compound, HU + UCN01) | DSB formation in MUS81-depleted cells (GM01604 cells; replication stress induced by CHK1 inhibition)
O=C(O[C@@H]1Cc2c(O)cc(O)cc2O[C@@H]1c1cc(O)c(O)c(O)c1)c1cc(O)c(O)c(O)c1 [Compound 6, Epigallocatechin-3-monogallate] | binds to RPA | does not interfere with the RPA-ssDNA interaction | mid nanomolar to low micromolar | higher concentration | failed to further decrease the formation of DNA breaks |  | 
Oc1cc(O)c2c(c1)O[C@H](c1cc(O)c(O)c(O)c1)[C@H](O)C2 [Compound ‘1’, (−)-Epigallocatechin] | neither binds to RPA | nor interferes with the RPA-ssDNA interaction | mid nanomolar to low micromolar | 1 µM |  | same effect of reduction in DSBs as siRNA depletion of RAD52 | appearance of the MUS81-independent DSBs

Reference: patent publication US20180209956A1, “HTS Assay for Identifying Small Molecule Inhibitors of RAD52 and Uses of Identified Small Molecule Inhibitors for Treatment and Prevention of BRCA-Deficient Malignancies” (University of Iowa Research Foundation, priority 2015, published 2018)
